Values quoted from earlier work as cited in patent US20230099183A1, “STEVIOL GLYCOSIDE AND GLYCERIN FORMULATIONS FOR FOOD AND BEVERAGES” (Sweegen, Inc., priority 2021, published 2023).

Key:
[1] = background statement on natural steviol glycosides
[2] = background statement; concentration in food or beverage

C=C1C[C@@]23CC[C@H]4[C@@](C)(CCC[C@@]4(C)C(=O)O[C@@H]4O[C@H](CO)[C@@H](O)[C@H](O)[C@H]4O)[C@@H]2CC[C@]1(O[C@@H]1O[C@H](CO)[C@@H](O)[C@H](O)[C@H]1O[C@@H]1O[C@@H](C)[C@H](O)[C@@H](O)[C@H]1O)C3 [Dulcoside A]
degree of sweetness, times sweeter than sucrose [1]: about 30 times sweeter than sucrose

C=C1C[C@@]23CC[C@H]4[C@@](C)(CCC[C@@]4(C)C(=O)O[C@@H]4O[C@H](CO)[C@@H](O)[C@H](O)[C@H]4O)[C@@H]2CC[C@]1(O[C@@H]1O[C@H](CO)[C@@H](O)[C@H](O[C@@H]2O[C@H](CO)[C@@H](O)[C@H](O)[C@H]2O)[C@H]1O[C@@H]1O[C@H](CO)[C@@H](O)[C@H](O)[C@H]1O)C3 [Reb A]
concentration above which bitterness is perceptible [2]: above 200 ppm

C=C1C[C@@]23CC[C@H]4[C@@](C)(CCC[C@@]4(C)C(=O)O[C@@H]4O[C@H](CO)[C@@H](O)[C@H](O)[C@H]4O)[C@@H]2CC[C@]1(O[C@@H]1O[C@H](CO)[C@@H](O)[C@H](O)[C@H]1O[C@@H]1O[C@H](CO)[C@@H](O)[C@H](O)[C@H]1O)C3 [stevioside]
degree of sweetness, times sweeter than sucrose [1]: 100-150 times sweeter than sucrose

Rebaudioside C
degree of sweetness, times sweeter than sucrose [1]: 40-60 times sweeter than sucrose
